Measurements as given in patent US7838522B2, “Benzothiazole formulations and use thereof” (Ares Trading S.A., priority 2004, dated 2010).

Test: Pharmacokinetic profile after oral administration in Beagle dogs
Type: in vivo
Settings: dog, plasma, 10.6 mg/kg, Compound A in Water for Injection
Procedure: Macrogol Glyceride formulations were orally administered in Beagle dogs as extemporaneous suspension in PBS at a dose of 10.6 mg/kg following the protocol below, by gavage in a volume of 2 mL/kg and bulk formulation by forced introduction into the throat.
The formulations were administered to the animals which had fasted overnight (i.e. for about 16 hours) before treatment, food was allowed again 4 hours after treatment.
Macrogol Glyceride formulations (1) and (2) were orally administered as described above. A wash-out interval between the administration of formulation (1) and of formulations (2) was of at least 1 week.
6 Beagle dogs (3 males and 3 females) of about 10-13 kg of bodyweight and of age 9 to 12 months were used. Animals were weighed fasted before administration and the body weight recorded.
Blood (at least 2.5 ml) was collected from a jugular vein into heparinised tubes before and after dosing, at the following 15 times:
Blood was centrifuged within 15 min at about 2500 g at +4° C. for 10 min. Blood cells were discharged and plasma obtained was divided into 3 aliquots (at least 0.3 mL each). The plasma concentrations of Compound A (free base of Compound A, mesylate) in the unknown dog plasma samples was determined by a High Performance Liquid Chromatography/Mass Spectrometry (HPLC/MS). […]

bioavailability: < 15%
SMILES: N#CC(c1ccnc(OCc2ccc(CN3CCOCC3)cc2)n1)c1nc2ccccc2s1 (stereo not shown) [Compound A, 1,3 benzothiazol-2-yl-[2-(4-morpholin-4-ylmethyl-benzyloxy)-pyrimidin-4-yl]-acetonitrile]
